One block for each substance: values may come before it.
System: IgE antibodies from patients
Experiment: Wheat epitope mapping (2): overlapping 10-amino-acid peptide fragments shifted by one amino acid;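 as to epitope sequence binding to IgE antibody, rank (Key/Preferably/More preferably): key of grades: preferably = shorter partial sequence still acting as epitope; more preferably = sequence improving IgE binding; key = particularly important sequence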
Format: binding, human
Conditions: for Epitope sequence binding to IgE antibody, rank of the sequence (Key/Preferably/More preferably): sequence without X
Method in brief: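 Cellulose-bound 10-mer peptides offset by one residue were probed with patient serum IgE and detected by chemiluminescence. Secondary-antibody-only signals were subtracted per peptide. Residual binding was expressed as % of the parent overlapping peptide, scored as none (<30%), poor (30–<50%), somewhat poor (50–<70%) or retained (≥70%).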

epitope sequence binding to IgE antibody, rank (Key/Preferably/More preferably) (serum of patient P9 (WDEIA)): Key
Substance: 1916 (QQQQFPGQQQ; REGION 1..10: note = epitope) [compound 1916]

epitope sequence binding to IgE antibody, rank (Key/Preferably/More preferably) (serum of patient P10 (WDEIA)): Preferably
Substance: 1918 (QVPLVQQQQ; REGION 1..9: note = epitope) [compound 1918]

epitope sequence binding to IgE antibody, rank (Key/Preferably/More preferably) (serum of patient P10 (WDEIA)): Key
Substance: 1919 (VPLVQQQ; REGION 1..7: note = epitope) [compound 1919]

epitope sequence binding to IgE antibody, rank (Key/Preferably/More preferably) (serum of patient P12 (WDEIA)): Key
Substance: 1924 (FPGQQ; REGION 1..5: note = epitope) [compound 1924]

epitope sequence binding to IgE antibody, rank (Key/Preferably/More preferably) (serum of patient P14 (WDEIA)): Preferably
Substance: 1926 (QQQFPGQQQ; REGION 1..9: note = epitope) [compound 1926]

epitope sequence binding to IgE antibody, rank (Key/Preferably/More preferably) (serum of patient P14 (WDEIA)): Key
Substance: 1927 (QFPGQQ; REGION 1..6: note = epitope) [compound 1927]

epitope sequence binding to IgE antibody, rank (Key/Preferably/More preferably) (serum of patient P15 (WDEIA)): Key
Substance: 1928 (VPLVQQQ; REGION 1..7: note = epitope) [compound 1928]

epitope sequence binding to IgE antibody, rank (Key/Preferably/More preferably) (serum of patient P17 (WDEIA)): Preferably
Substance: 1932 (QVPLVQQQ; REGION 1..8: note = epitope) [compound 1932]

epitope sequence binding to IgE antibody, rank (Key/Preferably/More preferably) (serum of patient P19 (WDEIA)): Preferably
Substance: 1937 (QQFPGQQQ; REGION 1..8: note = epitope) [compound 1937]

epitope sequence binding to IgE antibody, rank (Key/Preferably/More preferably) (serum of patient P21 (WDEIA)): More preferably
Substance: 1941 (QQFPGQQQ; REGION 1..8: note = epitope) [compound 1941]

epitope sequence binding to IgE antibody, rank (Key/Preferably/More preferably) (serum of patient P21 (WDEIA)): Key
Substance: 1943 (QFPGQQ; REGION 1..6: note = epitope) [compound 1943]

epitope sequence binding to IgE antibody, rank (Key/Preferably/More preferably) (serum of patient P22 (WDEIA)): More preferably
Substance: 1944 (QFPGQQQ; REGION 1..7: note = epitope) [compound 1944]

epitope sequence binding to IgE antibody, rank (Key/Preferably/More preferably) (serum of patient P22 (WDEIA)): Preferably
Substance: 1945 (FPGQQ; REGION 1..5: note = epitope) [compound 1945]

epitope sequence binding to IgE antibody, rank (Key/Preferably/More preferably) (serum of patient P22 (WDEIA)): Key
Substance: 1946 (FPGQ; REGION 1..4: note = epitope) [compound 1946]

epitope sequence binding to IgE antibody, rank (Key/Preferably/More preferably) (serum of patient P24 (WDEIA)): Preferably
Substance: 1948 (QVPLVQQQ; REGION 1..8: note = epitope) [compound 1948]

epitope sequence binding to IgE antibody, rank (Key/Preferably/More preferably) (serum of patient P24 (WDEIA)): Key
Substance: 1949 (VPLVQQ; REGION 1..6: note = epitope) [compound 1949]

epitope sequence binding to IgE antibody, rank (Key/Preferably/More preferably) (serum of patient P24 (WDEIA)): Preferably
Substance: 1951 (QFPGQQQ; REGION 1..7: note = epitope) [compound 1951]

epitope sequence binding to IgE antibody, rank (Key/Preferably/More preferably) (serum of patient P26 (WDEIA)): Preferably
Substance: 1954 (QQFPGQQ; REGION 1..7: note = epitope) [compound 1954]

epitope sequence binding to IgE antibody, rank (Key/Preferably/More preferably) (serum of patient P26 (WDEIA)): Key
Substance: 1955 (QFPGQ; REGION 1..5: note = epitope) [compound 1955]

epitope sequence binding to IgE antibody, rank (Key/Preferably/More preferably) (serum of patient P28 (WDEIA)): More preferably
Substance: 1958 (QQFPGQQQ; REGION 1..8: note = epitope) [compound 1958]

epitope sequence binding to IgE antibody, rank (Key/Preferably/More preferably) (serum of patient P32 (WDEIA)): Preferably
Substance: 1961 (QQQQFPGQQ; REGION 1..9: note = epitope) [compound 1961]

epitope sequence binding to IgE antibody, rank (Key/Preferably/More preferably) (serum of patient P32 (WDEIA)): Key
Substance: 1962 (QQQFPGQQ; REGION 1..8: note = epitope) [compound 1962]

epitope sequence binding to IgE antibody, rank (Key/Preferably/More preferably) (serum of patient P33 (WDEIA)): Key
Substance: 1966 (QFPGQQ; REGION 1..6: note = epitope) [compound 1966]

epitope sequence binding to IgE antibody, rank (Key/Preferably/More preferably) (serum of patient P34 (WDEIA)): Key
Substance: 1967 (VPLVQQQ; REGION 1..7: note = epitope) [compound 1967]

Epitope sequence binding to IgE antibody, rank of the sequence (Key/Preferably/More preferably) (serum of patient P2 (WDEIA)): Preferably
Substance: 2219 (IRNYRVAI; REGION 1..8: note = epitope) [compound 2219]

Epitope sequence binding to IgE antibody, rank of the sequence (Key/Preferably/More preferably) (serum of patient P8 (WDEIA)): Key
Substance: 2223 (IRNYRVA; REGION 1..7: note = epitope) [compound 2223]

Epitope sequence binding to IgE antibody, rank of the sequence (Key/Preferably/More preferably) (serum of patient P17 (WDEIA)): Key
Substance: 2225 (VSRLLRGIRN; REGION 1..10: note = epitope) [compound 2225]

Epitope sequence binding to IgE antibody, rank of the sequence (Key/Preferably/More preferably) (serum of patient P21 (WDEIA)): Key
Substance: 2230 (IRNYRV; REGION 1..6: note = epitope) [compound 2230]

Epitope sequence binding to IgE antibody, rank of the sequence (Key/Preferably/More preferably) (serum of patient P30 (WDEIA)): Key
Substance: 2237 (NYRV; REGION 1..4: note = epitope) [compound 2237]

The remaining lines, values behind:

Substance: 1915 (QVPLVQQQQ; REGION 1..9: note = epitope) [compound 1915]
epitope sequence binding to IgE antibody, rank (Key/Preferably/More preferably) (serum of patient P9 (WDEIA)): Key

Substance: 1920 (LVQQQQFPGQ; REGION 1..10: note = epitope) [compound 1920]
epitope sequence binding to IgE antibody, rank (Key/Preferably/More preferably) (serum of patient P10 (WDEIA)): Key

Substance: 1921 (QVPLVQQQ; REGION 1..8: note = epitope) [compound 1921]
epitope sequence binding to IgE antibody, rank (Key/Preferably/More preferably) (serum of patient P12 (WDEIA)): Preferably

Substance: 1922 (QVPLVQQ; REGION 1..7: note = epitope) [compound 1922]
epitope sequence binding to IgE antibody, rank (Key/Preferably/More preferably) (serum of patient P12 (WDEIA)): Key

Substance: 1923 (QQFPGQQQ; REGION 1..8: note = epitope) [compound 1923]
epitope sequence binding to IgE antibody, rank (Key/Preferably/More preferably) (serum of patient P12 (WDEIA)): Preferably

Substance: 1925 (QFPGQQ; REGION 1..6: note = epitope) [compound 1925]
epitope sequence binding to IgE antibody, rank (Key/Preferably/More preferably) (serum of patient P13 (WDEIA)): Key

Substance: 1929 (QFPGQQQ; REGION 1..7: note = epitope) [compound 1929]
epitope sequence binding to IgE antibody, rank (Key/Preferably/More preferably) (serum of patient P15 (WDEIA)): Preferably

Substance: 1930 (FPGQQQ; REGION 1..6: note = epitope) [compound 1930]
epitope sequence binding to IgE antibody, rank (Key/Preferably/More preferably) (serum of patient P15 (WDEIA)): Key

Substance: 1933 (VPLVQQ; REGION 1..6: note = epitope) [compound 1933]
epitope sequence binding to IgE antibody, rank (Key/Preferably/More preferably) (serum of patient P17 (WDEIA)): Key

Substance: 1936 (QVPLVQQ; REGION 1..7: note = epitope) [compound 1936]
epitope sequence binding to IgE antibody, rank (Key/Preferably/More preferably) (serum of patient P19 (WDEIA)): Key

Substance: 1938 (QFPGQQ; REGION 1..6: note = epitope) [compound 1938]
epitope sequence binding to IgE antibody, rank (Key/Preferably/More preferably) (serum of patient P19 (WDEIA)): Key

Substance: 1939 (QVPLVQQ; REGION 1..7: note = epitope) [compound 1939]
epitope sequence binding to IgE antibody, rank (Key/Preferably/More preferably) (serum of patient P21 (WDEIA)): Preferably

Substance: 1940 (VPLVQ; REGION 1..5: note = epitope) [compound 1940]
epitope sequence binding to IgE antibody, rank (Key/Preferably/More preferably) (serum of patient P21 (WDEIA)): Key

Substance: 1942 (QQFPGQQ; REGION 1..7: note = epitope) [compound 1942]
epitope sequence binding to IgE antibody, rank (Key/Preferably/More preferably) (serum of patient P21 (WDEIA)): Preferably

Substance: 1950 (QQQFPGQQQ; REGION 1..9: note = epitope) [compound 1950]
epitope sequence binding to IgE antibody, rank (Key/Preferably/More preferably) (serum of patient P24 (WDEIA)): More preferably

Substance: 1952 (QFPGQQ; REGION 1..6: note = epitope) [compound 1952]
epitope sequence binding to IgE antibody, rank (Key/Preferably/More preferably) (serum of patient P24 (WDEIA)): Key

Substance: 1959 (QFPGQQ; REGION 1..6: note = epitope) [compound 1959]
epitope sequence binding to IgE antibody, rank (Key/Preferably/More preferably) (serum of patient P28 (WDEIA)): Preferably

Substance: 1964 (QQQFPGQQ; REGION 1..8: note = epitope) [compound 1964]
epitope sequence binding to IgE antibody, rank (Key/Preferably/More preferably) (serum of patient P33 (WDEIA)): More preferably

Substance: 1965 (QQFPGQQ; REGION 1..7: note = epitope) [compound 1965]
epitope sequence binding to IgE antibody, rank (Key/Preferably/More preferably) (serum of patient P33 (WDEIA)): Preferably

Substance: 1968 (QFPGQQ; REGION 1..6: note = epitope) [compound 1968]
epitope sequence binding to IgE antibody, rank (Key/Preferably/More preferably) (serum of patient P34 (WDEIA)): Key

Substance: 2220 (NYRV; REGION 1..4: note = epitope) [compound 2220]
Epitope sequence binding to IgE antibody, rank of the sequence (Key/Preferably/More preferably) (serum of patient P2 (WDEIA)): Key

Substance: 2221 (IRNYR; REGION 1..5: note = epitope) [compound 2221]
Epitope sequence binding to IgE antibody, rank of the sequence (Key/Preferably/More preferably) (serum of patient P7 (WDEIA)): Key

Substance: 2222 (RLLRGIRNY; REGION 1..9: note = epitope) [compound 2222]
Epitope sequence binding to IgE antibody, rank of the sequence (Key/Preferably/More preferably) (serum of patient P8 (WDEIA)): Key

Substance: 2224 (IRNYRVA; REGION 1..7: note = epitope) [compound 2224]
Epitope sequence binding to IgE antibody, rank of the sequence (Key/Preferably/More preferably) (serum of patient P16 (WDEIA)): Key

Substance: 2226 (RNYR; REGION 1..4: note = epitope) [compound 2226]
Epitope sequence binding to IgE antibody, rank of the sequence (Key/Preferably/More preferably) (serum of patient P17 (WDEIA)): Key

Substance: 2227 (LLRGIRN; REGION 1..7: note = epitope) [compound 2227]
Epitope sequence binding to IgE antibody, rank of the sequence (Key/Preferably/More preferably) (serum of patient P18 (WDEIA)): Key

Substance: 2228 (NYRVAI; REGION 1..6: note = epitope) [compound 2228]
Epitope sequence binding to IgE antibody, rank of the sequence (Key/Preferably/More preferably) (serum of patient P18 (WDEIA)): Key

Substance: 2231 (IRNY; REGION 1..4: note = epitope) [compound 2231]
Epitope sequence binding to IgE antibody, rank of the sequence (Key/Preferably/More preferably) (serum of patient P28 (WDEIA)): Key

Substance: 2233 (IRNYRVAI; REGION 1..8: note = epitope) [compound 2233]
Epitope sequence binding to IgE antibody, rank of the sequence (Key/Preferably/More preferably) (serum of patient P29 (WDEIA)): Preferably

Substance: 2234 (RNYR; REGION 1..4: note = epitope) [compound 2234]
Epitope sequence binding to IgE antibody, rank of the sequence (Key/Preferably/More preferably) (serum of patient P29 (WDEIA)): Key

Substance: 2235 (SRLLRGIRN; REGION 1..9: note = epitope) [compound 2235]
Epitope sequence binding to IgE antibody, rank of the sequence (Key/Preferably/More preferably) (serum of patient P30 (WDEIA)): Key

Substance: 2236 (IRNYRVAI; REGION 1..8: note = epitope) [compound 2236]
Epitope sequence binding to IgE antibody, rank of the sequence (Key/Preferably/More preferably) (serum of patient P30 (WDEIA)): Preferably
